This test deals with T1, rat mGluR5 (Rattus norvegicus, UniProt P31424).
T1 construct: expressed in transfected cells
Kind of test: mGluR5 assay on HEK-expressing rat mGluR5 (fluorescent cell based Ca2+ mobilization assay). Particulars: HEK-293 cells stably expressing rat mGluR5; no co-addition of glutamate; mean of at least three independent experiments in duplicate; read-out: Ca++ Flux (mean EC50). How it is done:
mGluR5 Assay on HEK-Expressing Rat mGluR5
Positive functional expression of HEK-293 cells stably expressing rat mGluR5 receptor was determined by measuring intracellular Ca^2+ changes using a Fluorometric Imaging Plate Reader (FLIPR, Molecular Devices, Sunnyvale, Calif.) in response to glutamate or selective known mGluR5 agonists and antagonists. Rat mGluR5 RT-PCR products in HEK-293 cells were sequenced and found 100% identical to rat mGluR5 Genbank reference sequence (NM_017012). HEK-293 cells expressing rmGluR5 were maintained in media containing DMEM, dialyzed Fetal Bovine Serum (10%), Glutamax™ (2 mM), Penicillin (100 units/ml), Streptomycin (100 μg/ml), Geneticin (100 μg/ml) and Hygromycin-B (40 μg/ml) at 37° C./5% CO2.
After one day of incubation, cells were washed with assay buffer containing: 142 mM NaCl, 6 mM KCl, 1 mM […], 1 mM CaCl2, 20 mM HEPES, 1 g/L glucose, 0.125 mM sulfinpyrazone, pH 7.4. After 60 min of loading with 4 uM Fluo-4 (TefLabs, Austin, Tex.), the cells were washed three times with 50 μl of PBS Buffer and resuspended in 45 μl of assay Buffer. The plates were then transferred to a Fluorometric Imaging Plate Reader (FLIPR, Molecular Devices, Sunnyvale, Calif.) for the assessment of intracellular calcium flux. After monitoring the baseline fluorescence for 10 seconds, increasing concentrations of representative compound (from 0.01 to 60 μM) of the present invention diluted in Assay Buffer (15 μl of 4× dilutions) was added to the cell. The final DMSO concentration in the assay was 0.3%. In each experiment, fluorescence was then monitored as a function of time for 3 minutes and the data analyzed using Microsoft Excel and GraphPad Prism. Each data point was also measured two times.
Under these experimental conditions, this HEK-rat mGluR5 cell line is able to directly detect positive allosteric modulators without the need of co-addition of glutamate or mGluR5 agonist.
The concentration-response curves of representative compounds of the present invention were generated using the Prism GraphPad software (Graph Pad Inc, San Diego, USA). The curves were fitted to a four-parameter logistic equation:
(Y=Bottom+(Top−Bottom)/(1+10̂((Log EC50−X)*Hill Slope)
allowing determination of EC50 values.
The Table 1 below represents the mean EC50 obtained from at least three independent experiments of selected molecules performed in duplicate.

Structures can show the parent of a compound that is named as a salt.

Usually EC50 stands for the concentration that produces a half-maximal response.

T1 sequence (P31424 21-1171 isoform P31424-2 limits assumed): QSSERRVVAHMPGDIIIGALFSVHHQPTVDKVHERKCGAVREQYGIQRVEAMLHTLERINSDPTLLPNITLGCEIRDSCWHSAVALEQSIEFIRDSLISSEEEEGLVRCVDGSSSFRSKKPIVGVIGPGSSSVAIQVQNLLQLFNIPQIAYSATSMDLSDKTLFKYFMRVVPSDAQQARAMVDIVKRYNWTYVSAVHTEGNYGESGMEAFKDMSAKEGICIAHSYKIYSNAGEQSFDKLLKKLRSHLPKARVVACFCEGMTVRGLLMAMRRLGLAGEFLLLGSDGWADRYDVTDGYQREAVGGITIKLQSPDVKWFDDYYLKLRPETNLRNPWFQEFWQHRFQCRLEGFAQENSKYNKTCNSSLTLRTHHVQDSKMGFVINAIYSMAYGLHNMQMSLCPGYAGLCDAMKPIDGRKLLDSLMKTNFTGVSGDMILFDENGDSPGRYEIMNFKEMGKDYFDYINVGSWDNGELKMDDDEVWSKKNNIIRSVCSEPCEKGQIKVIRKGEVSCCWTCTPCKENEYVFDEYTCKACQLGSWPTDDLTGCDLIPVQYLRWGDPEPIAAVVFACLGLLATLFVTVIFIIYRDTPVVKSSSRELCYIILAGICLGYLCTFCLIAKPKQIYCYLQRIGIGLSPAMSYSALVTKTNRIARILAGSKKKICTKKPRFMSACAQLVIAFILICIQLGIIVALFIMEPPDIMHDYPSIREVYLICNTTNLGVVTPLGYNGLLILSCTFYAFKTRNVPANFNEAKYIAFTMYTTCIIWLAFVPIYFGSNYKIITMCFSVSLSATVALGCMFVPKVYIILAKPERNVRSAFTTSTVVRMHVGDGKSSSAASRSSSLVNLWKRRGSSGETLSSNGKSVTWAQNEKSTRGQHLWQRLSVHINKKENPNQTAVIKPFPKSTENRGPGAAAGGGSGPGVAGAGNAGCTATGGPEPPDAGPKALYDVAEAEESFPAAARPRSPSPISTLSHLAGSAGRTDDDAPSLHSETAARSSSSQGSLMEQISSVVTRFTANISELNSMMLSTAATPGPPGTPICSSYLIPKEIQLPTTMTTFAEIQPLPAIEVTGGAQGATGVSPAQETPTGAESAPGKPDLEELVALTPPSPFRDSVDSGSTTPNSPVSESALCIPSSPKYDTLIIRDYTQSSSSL

With `Cc1nocc1C(=O)N1CCC[C@H](c2nc(-c3ccc(F)cc3)no2)C1` [Example 4, (S)-{3-[3-(4-Fluoro-phenyl)-[1,2,4]oxadiazol-5-yl]-piperidin-1-yl}-(3-methyl-isoxazol-4-yl)-methanone], the concentration for a half-maximal effect (EC50) was 1 to 10 µM.

Consider `O=C(c1cccc(COc2ccccc2)c1)N1CCC[C@H](c2nc(-c3ccc(F)cc3)no2)C1` [Example 6, {(S)-3-[3-(4-Fluoro-phenyl)-[1,2,4]oxadiazol-5-yl]-piperidin-1-yl}-(3-phenoxymethyl-phenyl)-methanone], for which the half-maximal effective concentration (EC50) was greater than 10 µM.

For the compound `O=C(C1CCc2cc(F)ccc21)N1CCC[C@H](c2nc(-c3ccc(F)cc3)no2)C1` (stereo partly drawn) [Example 8, (5-Fluoro-indan-1-yl)-{(S)-3-[3-(4-fluoro-phenyl)-[1,2,4]oxadiazol-5-yl]-piperidin-1-yl}-methanone], the EC50 is greater than 10 µM.

As for `Cc1nnsc1C(=O)N1CCC[C@H](c2nc(-c3ccc(F)cc3)no2)C1` [Example 13, {(S)-3-[3-(4-Fluoro-phenyl)-[1,2,4]oxadiazol-5-yl]-piperidin-1-yl}-(4-methyl-[1,2,3]thiadiazol-5-yl)-methanone], the EC50 lay within 1 to 10 µM.

`O=C(c1cccnc1F)N1CCC[C@H](c2nc(-c3ccc(F)cc3)no2)C1` [Example 14, {(S)-3-[3-(4-Fluoro-phenyl)-[1,2,4]oxadiazol-5-yl]-piperidin-1-yl}-(2-fluoro-pyridin-3-yl)-methanone]: the EC50 lay within 1 to 10 µM.

On to `O=C(c1ccccn1)N1CCC[C@H](c2nc(-c3ccc(F)cc3)no2)C1` [Example 15, {(S)-3-[3-(4-Fluoro-phenyl)-[1,2,4]oxadiazol-5-yl]-piperidin-1-yl}-pyridin-2-yl-methanone hydrochloride], for which the 50% effective concentration (EC50) was 1 to 10 µM.

As to `Cc1nc(C)c(C(=O)N2CCC[C@H](c3nc(-c4ccc(F)cc4)no3)C2)s1` [Example 18, (2,4-Dimethyl-thiazol-5-yl)-{(S)-3-[3-(4-fluoro-phenyl)-[1,2,4]oxadiazol-5-yl]-piperidin-1-yl}-methanone], the concentration for a half-maximal effect (EC50) lay in the range of 1 to 10 µM.

Turning to `Cc1ccccc1C(=O)N1CCC[C@H](c2nc(-c3ccc(F)cc3)no2)C1` [Example 19, {(S)-3-[3-(4-Fluoro-phenyl)-[1,2,4]oxadiazol-5-yl]-piperidin-1-yl}-o-tolyl-methanone], the 50% effective concentration (EC50) lay within 1 to 10 µM.

Turning to `CCc1ccccc1C(=O)N1CCC[C@H](c2nc(-c3ccc(F)cc3)no2)C1` [Example 20, (2-Ethyl-phenyl)-{3-[3-(4-fluoro-phenyl)-[1,2,4]oxadiazol-5-yl]-piperidin-1-yl}-methanone], the half-maximal effective concentration (EC50) lay within 1 to 10 µM.

For `Cc1c(C(=O)N2CCC[C@H](c3nc(-c4ccc(F)cc4)no3)C2)cnn1C` [Example 21, (1,5-Dimethyl-1H-pyrazol-4-yl)-{(S)-3-[3-(4-fluoro-phenyl)-[1,2,4]oxadiazol-5-yl]-piperidin-1-yl}-methanone], the EC50 was in the range of 1 to 10 µM.

As to `O=C(c1ccoc1)N1CCC[C@H](c2nc(-c3ccc(F)cc3)no2)C1` [Example 22, {(S)-3-[3-(4-Fluoro-phenyl)-[1,2,4]oxadiazol-5-yl]-piperidin-1-yl}-furan-3-yl-methanone], the EC50 fell in the range of 1 to 10 µM.

For the compound `Cc1occc1C(=O)N1CCC[C@H](c2nc(-c3ccc(F)cc3)no2)C1` [Example 24, {(S)-3-[3-(4-Fluoro-phenyl)-[1,2,4]oxadiazol-5-yl]-piperidin-1-yl}-(2-methyl-furan-3-yl)-methanone], the EC50 lay within 1 to 10 µM.

As to `O=C(c1ccsc1Br)N1CCC[C@H](c2nc(-c3ccc(F)cc3)no2)C1` [Example 28, (S)-(2-Bromo-thiophen-3-yl)-{3-[3-(4-fluoro-phenyl)-[1,2,4]oxadiazol-5-yl]-piperidin-1-yl}-methanone], the half-maximal effective concentration (EC50) fell in the range of 1 to 10 µM.

Turning to `Cc1ccoc1C(=O)N1CCC[C@H](c2nc(-c3ccc(F)cc3)no2)C1` [Example 30, (S)-{3-[3-(4-Fluoro-phenyl)-[1,2,4]oxadiazol-5-yl]-piperidin-1-yl}-(3-methyl-furan-2-yl)-methanone], the EC50 was in the range of 1 to 10 µM.

`COc1ccsc1C(=O)N1CCC[C@H](c2nc(-c3ccc(F)cc3)no2)C1` [Example 31, {(S)-3-[3-(4-Fluoro-phenyl)-[1,2,4]oxadiazol-5-yl]-piperidin-1-yl}-(3-methoxy-thiophen-2-yl)-methanone]: the half-maximal effective concentration (EC50) was greater than 10 µM.

For the compound `Cc1cc(F)ccc1C(=O)N1CCC[C@H](c2nc(-c3ccc(F)cc3)no2)C1` [Example 32, (4-Fluoro-2-methyl-phenyl)-{(S)-3-[3-(4-fluoro-phenyl)-[1,2,4]oxadiazol-5-yl]-piperidin-1-yl}-methanone], the EC50 is less than 1 µM.

As to `Cc1cccc(-c2noc([C@H]3CCCN(C(=O)c4ccc(F)cc4)C3)n2)n1` [Example 33, (4-Fluoro-phenyl)-{(S)-3-[3-(6-methyl-pyridin-2-yl)-[1,2,4]oxadiazol-5-yl]-piperidin-1-yl}-methanone], the concentration for a half-maximal effect (EC50) was 1 to 10 µM.

With `Cc1ccc(-c2noc([C@H]3CCCN(C(=O)c4ccc(F)cc4)C3)n2)o1` [Example 34, (4-Fluoro-phenyl)-{(S)-3-[3-(5-methyl-furan-2-yl)-[1,2,4]oxadiazol-5-yl]-piperidin-1-yl}-methanone], the EC50 is 1 to 10 µM.

With `O=C(c1ccc(F)cc1)N1CCC[C@H](c2nc(-c3ccco3)no2)C1` [Example 35, (4-Fluoro-phenyl)-[(S)-3-(3-furan-2-yl-[1,2,4]oxadiazol-5-yl)-piperidin-1-yl]-methanone], the EC50 was in the range of 1 to 10 µM.

For `Cc1sccc1C(=O)N1CCC[C@H](c2nc(-c3ccc(F)cc3)no2)C1` [Example 36, {(S)-3-[3-(4-Fluoro-phenyl)-[1,2,4]oxadiazol-5-yl]-piperidin-1-yl}-(2-methyl-thiophen-3-yl)-methanone], the 50% effective concentration (EC50) lay in the range of 1 to 10 µM.

For the compound `O=C(c1ccc(F)cc1)N1CCC[C@H](c2nc(-c3cccs3)no2)C1` [Example 37, (4-Fluoro-phenyl)-[(S)-3-(3-thiophen-2-yl-[1,2,4]oxadiazol-5-yl)-piperidin-1-yl]-methanone], the half-maximal effective concentration (EC50) is less than 1 µM.

Consider `O=C(c1ccc(F)cc1)N1CCC[C@H](c2nc(-c3ccsc3)no2)C1` [Example 38, (4-Fluoro-phenyl)-[(S)-3-(3-thiophen-3-yl-[1,2,4]oxadiazol-5-yl)-piperidin-1-yl]-methanone], for which the EC50 is less than 1 µM.

On to `Cn1cccc1-c1noc([C@H]2CCCN(C(=O)c3ccc(F)cc3)C2)n1` [Example 39, (4-Fluoro-phenyl)-{(S)-3-[3-(1-methyl-1H-pyrrol-2-yl)-[1,2,4]oxadiazol-5-yl]-piperidin-1-yl}-methanone], for which the EC50 lay in the range of 1 to 10 µM.

On to `Cc1cccnc1-c1noc([C@H]2CCCN(C(=O)c3ccc(F)cc3)C2)n1` [Example 40, (4-Fluoro-phenyl)-{(S)-3-[3-(3-methyl-pyridin-2-yl)-[1,2,4]oxadiazol-5-yl]-piperidin-1-yl}-methanone], for which the concentration giving a half-maximal response (EC50) was greater than 10 µM.

Take `O=C(c1c[nH]nc1C(F)(F)F)N1CCC[C@H](c2nc(-c3ccc(F)cc3)no2)C1` [Example 41, {(S)-3-[3-(4-Fluoro-phenyl)-[1,2,4]oxadiazol-5-yl]-piperidin-1-yl}-(3-trifluoromethyl-1H-pyrazol-4-yl)-methanone]: the 50% effective concentration (EC50) was greater than 10 µM.

As for `CNc1cc(F)ccc1C(=O)N1CCC[C@H](c2nc(-c3ccc(F)cc3)no2)C1` [Example 42, (4-Fluoro-2-methylamino-phenyl)-{(S)-3-[3-(4-fluoro-phenyl)-[1,2,4]oxadiazol-5-yl]-piperidin-1-yl}-methanone], the concentration giving a half-maximal response (EC50) was greater than 10 µM.

For `Cc1oncc1C(=O)N1CCC[C@H](c2nc(-c3ccsc3)no2)C1` [Example 44, (5-Methyl-isoxazol-4-yl)-[(S)-3-(3-thiophen-3-yl-[1,2,4]oxadiazol-5-yl)-piperidin-1-yl]-methanone], the half-maximal effective concentration (EC50) is less than 1 µM.

Take `CCc1oncc1C(=O)N1CCC[C@H](c2nc(-c3ccc(F)cc3)no2)C1` [Example 46, (5-Ethyl-isoxazol-4-yl)-{(S)-3-[3-(4-fluoro-phenyl)-[1,2,4]oxadiazol-5-yl]-piperidin-1-yl}-methanone]: the concentration giving a half-maximal response (EC50) was 1 to 10 µM.

Take `COCc1oncc1C(=O)N1CCC[C@H](c2nc(-c3ccc(F)cc3)no2)C1` [Example 47, {(S)-3-[3-(4-Fluoro-phenyl)-[1,2,4]oxadiazol-5-yl]-piperidin-1-yl}-(5-methoxymethyl-isoxazol-4-yl)-methanone]: the EC50 lay in the range of 1 to 10 µM.
